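The compound was tested at five concentrations on cells cultured in 96-well plates, with a 48-hour exposure period. Here, GI50 denotes the concentration required for 50% inhibition of growth. TGI: total growth inhibition.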

In the first assay the test system is OVCAR-5 ovarian. Kind of assay: DTP human tumour cell line panel, 48 h.
A word on the GI50: it is the concentration that inhibits growth by half. For orientation: TGI means the concentration at which net growth stops. High values mean less potent growth arrest, low ones more potent growth arrest. Regarding `Nc1n[nH]c2cccc(C#Cc3cccc(NC(=O)c4cccc(C(F)(F)F)c4)c3)c12`, the GI50 was 2210 nM and the TGI is 14 µM.

Molecule `COCCOC(=O)C1=C(O)c2ccccc2S(=O)(=O)N1C` gave a TGI of more than 100 µM.

In the case of `CNC(=O)OCc1nc(SSC(C)(C)C)n(C)c1COC(=O)NC`, the TGI was 21 µM.

With `CC1(C)N=C(N)N=C(N)N1c1ccc(CCC(=O)Nc2ccc(S(=O)(=O)F)cc2)c(Cl)c1`, the GI50 is 2400 nM and the total growth inhibition concentration (TGI) was more than 100 µM.

`CC(C)CNc1nc(-c2ccccc2Cl)nc2ccccc12`: the GI50 is 18600 nM and the TGI came out at 35.2 µM.

`COC(=O)c1ccc2[nH]c(O)c(C(=Nc3ccc(N(C)C(=O)CN4CCN(C)CC4)cc3)c3ccc4c(c3)OCO4)c2c1`: the GI50 was 1710 nM and the total growth inhibition concentration (TGI) came out at 3.72 µM.

In the case of `COc1ccc2c(c1)OC1=C(C(=O)OC1)C2c1cc(OC)c2c(c1)OCCO2` (configuration not stated), the GI50 was 126 nM and the total growth inhibition concentration (TGI) is more than 100 µM.

Molecule `N[C@H](C(=O)O)[C@@H]1CC(Cl)=NO1` gave a TGI of 648 µM.

Take `Oc1ccc2ccccc2c1N=Nc1cccc2ccccc12`: the concentration for total growth inhibition (TGI) is more than 100 µM.

In the case of `COc1ccc2c(c1)NC1=C(C(=O)OC1)C2c1cc(OC)c(OC)c(OC)c1` (configuration not stated), the GI50 is less than 10 nM and the concentration for total growth inhibition (TGI) was more than 100 µM.

Regarding `CCOc1cc(C(C)(C)C)ccc1C1=N[C@H](c2ccc(Cl)cc2)[C@H](c2ccc(Cl)cc2)N1C(=O)N1CCN(CC#Cc2cccc3c2CN([C@@H]2CCC(=O)NC2=O)C3=O)CC1`, the GI50 is 4500 nM and the TGI is more than 54.3 µM.

The molecule `NCCCNCCS` showed a total growth inhibition concentration (TGI) of more than 100 µM.

In turn, `CN(C)CCOc1ccc([N+](=O)[O-])c2cccnc12` had a total growth inhibition concentration (TGI) of more than 100 µM.

Consider `Nc1ncnc2c1ncn2C1C=C(CO)C(O)C1O` (configuration not stated), for which the concentration for total growth inhibition (TGI) was more than 100 µM.

The subject of the next assay is HCC-2998 colon. Kind of assay: DTP human tumour cell line panel, 48 h.
Turning to `Nc1n[nH]c2cccc(C#Cc3cccc(NC(=O)c4cccc(C(F)(F)F)c4)c3)c12`, the GI50 was 2430 nM and the TGI is 7.31 µM.

`COCCOC(=O)C1=C(O)c2ccccc2S(=O)(=O)N1C`: the TGI was more than 100 µM.

As for `CNC(=O)OCc1nc(SSC(C)(C)C)n(C)c1COC(=O)NC`, the concentration for total growth inhibition (TGI) worked out at 22.4 µM.

On to `CC1(C)N=C(N)N=C(N)N1c1ccc(CCC(=O)Nc2ccc(S(=O)(=O)F)cc2)c(Cl)c1`, for which the GI50 is 997 nM and the TGI was more than 100 µM.

Turning to `CC(C)CNc1nc(-c2ccccc2Cl)nc2ccccc12`, the GI50 is 19800 nM and the TGI came to 35.9 µM.

`COC(=O)c1ccc2[nH]c(O)c(C(=Nc3ccc(N(C)C(=O)CN4CCN(C)CC4)cc3)c3ccc4c(c3)OCO4)c2c1`: the GI50 was 1000 nM and the TGI was determined as 2.69 µM.

For `COc1ccc2c(c1)OC1=C(C(=O)OC1)C2c1cc(OC)c2c(c1)OCCO2` (configuration not stated), the GI50 was 78.1 nM.

Turning to `N[C@H](C(=O)O)[C@@H]1CC(Cl)=NO1`, the TGI was found to be 329 µM.

For the molecule `Oc1ccc2ccccc2c1N=Nc1cccc2ccccc12`, the total growth inhibition concentration (TGI) was more than 100 µM.

As to `COc1ccc2c(c1)NC1=C(C(=O)OC1)C2c1cc(OC)c(OC)c(OC)c1` (configuration not stated), the 50% growth inhibitory concentration (GI50) was less than 10 nM.

For the molecule `CCOc1cc(C(C)(C)C)ccc1C1=N[C@H](c2ccc(Cl)cc2)[C@H](c2ccc(Cl)cc2)N1C(=O)N1CCN(CC#Cc2cccc3c2CN([C@@H]2CCC(=O)NC2=O)C3=O)CC1`, the GI50 is 905 nM and the concentration for total growth inhibition (TGI) was more than 100 µM.

`NCCCNCCS` displayed a TGI of more than 100 µM.

With `CN(C)CCOc1ccc([N+](=O)[O-])c2cccnc12`, the TGI was more than 100 µM.

As to `Nc1ncnc2c1ncn2C1C=C(CO)C(O)C1O` (configuration not stated), the total growth inhibition concentration (TGI) was more than 77.3 µM.

The next assay concerns OVCAR-3 ovarian. Kind of assay: DTP human tumour cell line panel, 48 h.
Consider `Nc1n[nH]c2cccc(C#Cc3cccc(NC(=O)c4cccc(C(F)(F)F)c4)c3)c12`, for which the GI50 was 5.07 µM and the concentration for total growth inhibition (TGI) amounted to 17.3 µM.

`COCCOC(=O)C1=C(O)c2ccccc2S(=O)(=O)N1C` displayed a TGI of more than 100 µM.

`CNC(=O)OCc1nc(SSC(C)(C)C)n(C)c1COC(=O)NC` yielded a TGI of 4.81 µM.

`CC1(C)N=C(N)N=C(N)N1c1ccc(CCC(=O)Nc2ccc(S(=O)(=O)F)cc2)c(Cl)c1`: the GI50 is 9.86 µM and the concentration for total growth inhibition (TGI) is more than 100 µM.

With `CC(C)CNc1nc(-c2ccccc2Cl)nc2ccccc12`, the GI50 is 17 µM and the concentration for total growth inhibition (TGI) stood at 31.2 µM.

`COC(=O)c1ccc2[nH]c(O)c(C(=Nc3ccc(N(C)C(=O)CN4CCN(C)CC4)cc3)c3ccc4c(c3)OCO4)c2c1`: the GI50 was 0.638 µM and the TGI is 2.23 µM.

`COc1ccc2c(c1)OC1=C(C(=O)OC1)C2c1cc(OC)c2c(c1)OCCO2` (configuration not stated): the GI50 was 0.0285 µM and the total growth inhibition concentration (TGI) was found to be 0.0714 µM.

`N[C@H](C(=O)O)[C@@H]1CC(Cl)=NO1`: the GI50 was 31.4 µM and the TGI came out at 469 µM.

Molecule `Oc1ccc2ccccc2c1N=Nc1cccc2ccccc12` yielded a TGI of more than 100 µM.

For `COc1ccc2c(c1)NC1=C(C(=O)OC1)C2c1cc(OC)c(OC)c(OC)c1` (configuration not stated), the GI50 was less than 0.01 µM and the total growth inhibition concentration (TGI) was less than 0.01 µM.

Regarding `CCOc1cc(C(C)(C)C)ccc1C1=N[C@H](c2ccc(Cl)cc2)[C@H](c2ccc(Cl)cc2)N1C(=O)N1CCN(CC#Cc2cccc3c2CN([C@@H]2CCC(=O)NC2=O)C3=O)CC1`, the GI50 is 2.81 µM and the concentration for total growth inhibition (TGI) amounted to 15.9 µM.

Take `NCCCNCCS`: the total growth inhibition concentration (TGI) was more than 100 µM.

On to `CN(C)CCOc1ccc([N+](=O)[O-])c2cccnc12`, for which the TGI was more than 100 µM.

Turning to `Nc1ncnc2c1ncn2C1C=C(CO)C(O)C1O` (configuration not stated), the concentration for total growth inhibition (TGI) was more than 85.2 µM.

The next assay relates to TK-10 renal. Put plainly: DTP human tumour cell line panel, 48 h.
For `Nc1n[nH]c2cccc(C#Cc3cccc(NC(=O)c4cccc(C(F)(F)F)c4)c3)c12`, the GI50 is 5610 nM and the TGI was found to be 13.7 µM.

On to `COCCOC(=O)C1=C(O)c2ccccc2S(=O)(=O)N1C`, for which the TGI is more than 100 µM.

As to `CNC(=O)OCc1nc(SSC(C)(C)C)n(C)c1COC(=O)NC`, the total growth inhibition concentration (TGI) was determined as 13 µM.

For the molecule `CC1(C)N=C(N)N=C(N)N1c1ccc(CCC(=O)Nc2ccc(S(=O)(=O)F)cc2)c(Cl)c1`, the GI50 was 604 nM and the TGI is more than 100 µM.

For the molecule `CC(C)CNc1nc(-c2ccccc2Cl)nc2ccccc12`, the GI50 was 15800 nM and the TGI was found to be 29.6 µM.

For the molecule `COC(=O)c1ccc2[nH]c(O)c(C(=Nc3ccc(N(C)C(=O)CN4CCN(C)CC4)cc3)c3ccc4c(c3)OCO4)c2c1`, the GI50 was 1360 nM and the TGI stood at 3.14 µM.

Regarding `COc1ccc2c(c1)OC1=C(C(=O)OC1)C2c1cc(OC)c2c(c1)OCCO2` (configuration not stated), the GI50 was 1540 nM and the total growth inhibition concentration (TGI) is more than 100 µM.

In the case of `N[C@H](C(=O)O)[C@@H]1CC(Cl)=NO1`, the GI50 is 34500 nM and the TGI is more than 609 µM.

Turning to `Oc1ccc2ccccc2c1N=Nc1cccc2ccccc12`, the total growth inhibition concentration (TGI) was more than 100 µM.

Take `COc1ccc2c(c1)NC1=C(C(=O)OC1)C2c1cc(OC)c(OC)c(OC)c1` (configuration not stated): the GI50 is less than 10 nM and the concentration for total growth inhibition (TGI) is more than 100 µM.

For `CCOc1cc(C(C)(C)C)ccc1C1=N[C@H](c2ccc(Cl)cc2)[C@H](c2ccc(Cl)cc2)N1C(=O)N1CCN(CC#Cc2cccc3c2CN([C@@H]2CCC(=O)NC2=O)C3=O)CC1`, the GI50 is 2410 nM and the TGI turned out to be 44 µM.

In the case of `NCCCNCCS`, the TGI is more than 100 µM.

Molecule `CN(C)CCOc1ccc([N+](=O)[O-])c2cccnc12` displayed a TGI of more than 100 µM.

With `Nc1ncnc2c1ncn2C1C=C(CO)C(O)C1O` (configuration not stated), the TGI was more than 84.9 µM.

The subject of a further assay is U251 CNS. Put plainly: DTP human tumour cell line panel, 48 h.
For the molecule `Nc1n[nH]c2cccc(C#Cc3cccc(NC(=O)c4cccc(C(F)(F)F)c4)c3)c12`, the GI50 was 5.32 µM and the concentration for total growth inhibition (TGI) is 17.2 µM.

In the case of `COCCOC(=O)C1=C(O)c2ccccc2S(=O)(=O)N1C`, the TGI was more than 100 µM.

`CNC(=O)OCc1nc(SSC(C)(C)C)n(C)c1COC(=O)NC` came in with a TGI of 25.6 µM.

As to `CC1(C)N=C(N)N=C(N)N1c1ccc(CCC(=O)Nc2ccc(S(=O)(=O)F)cc2)c(Cl)c1`, the GI50 was 0.498 µM and the concentration for total growth inhibition (TGI) was more than 100 µM.

On to `CC(C)CNc1nc(-c2ccccc2Cl)nc2ccccc12`, for which the GI50 was 16.9 µM and the TGI is 30.5 µM.

For `COC(=O)c1ccc2[nH]c(O)c(C(=Nc3ccc(N(C)C(=O)CN4CCN(C)CC4)cc3)c3ccc4c(c3)OCO4)c2c1`, the GI50 was 0.884 µM and the TGI stood at 2.5 µM.

On to `COc1ccc2c(c1)OC1=C(C(=O)OC1)C2c1cc(OC)c2c(c1)OCCO2` (configuration not stated), for which the concentration for 50% growth inhibition (GI50) is 0.0433 µM.

As to `N[C@H](C(=O)O)[C@@H]1CC(Cl)=NO1`, the GI50 was 9.73 µM and the TGI was more than 1000 µM.

Molecule `Oc1ccc2ccccc2c1N=Nc1cccc2ccccc12` gave a concentration for total growth inhibition (TGI) of more than 100 µM.

`COc1ccc2c(c1)NC1=C(C(=O)OC1)C2c1cc(OC)c(OC)c(OC)c1` (configuration not stated): the GI50 was less than 0.01 µM and the concentration for total growth inhibition (TGI) is more than 100 µM.

Turning to `CCOc1cc(C(C)(C)C)ccc1C1=N[C@H](c2ccc(Cl)cc2)[C@H](c2ccc(Cl)cc2)N1C(=O)N1CCN(CC#Cc2cccc3c2CN([C@@H]2CCC(=O)NC2=O)C3=O)CC1`, the GI50 is 5.47 µM and the TGI is more than 47 µM.

`NCCCNCCS` yielded a concentration for total growth inhibition (TGI) of more than 100 µM.

For `CN(C)CCOc1ccc([N+](=O)[O-])c2cccnc12`, the total growth inhibition concentration (TGI) was more than 100 µM.

In turn, `Nc1ncnc2c1ncn2C1C=C(CO)C(O)C1O` (configuration not stated) registered a concentration for total growth inhibition (TGI) of more than 100 µM.

A further assay relates to HCT-15 colon. Kind of assay: DTP human tumour cell line panel, 48 h.
For the molecule `Nc1n[nH]c2cccc(C#Cc3cccc(NC(=O)c4cccc(C(F)(F)F)c4)c3)c12`, the GI50 is 2920 nM and the concentration for total growth inhibition (TGI) came to 13.6 µM.
